Test results as given in US9445606B2, “Use of 4-hydroxydihydrochalcones and their salts for enhancing an impression of sweetness” (SYMRISE AG, priority 2006, dated 2016).

Tests used:
[1] = Enhancing the impression of sweetness of a solution containing a sweet-tasting substance (expert panel rating), sucrose; format: in vivo; settings: 30 ppm substance, 5%
Procedure: (§1) In order to quantify the enhancement of an impression of sweetness by adding 4-hydroxydihydrochalcones to be used according to the invention, the sweetness of a solution containing a sweet-tasting substance and of samples containing the same amount of sweet-tasting substance and in addition a certain concentration of the 4-hydroxydihydrochalcones of the formula (I) to be used according to the invention was determined by a group of experts (classification 0 [extremely weaklysweet] to 10 [extremely sweet]). Evaluation was performed by calculating the enhancement (in %) of the impression of sweetness from the average values of the ratings for the solution containing the sweet-tasting substance (a) and for the solution containing the sweet-tasting substance and 4-dydroxydihydrochalcones (b).

[2] = Enhancing the impression of sweetness of a solution containing a sweet-tasting substance (expert panel rating), glycerine; format: in vivo; settings: 30 ppm substance, 5%
Procedure: as §1

[3] = Impression of sweetness of a sugar-reduced test solution (5% sucrose + compound against 6% sucrose); format: in vivo
Text: In order to quantify the retention of an impression of sweetness when replacing a proportion of sucrose with a small amount of 4-hydroxydihydrochalcones of the formula (I) being used in accordance with the invention, the sweetness (a) of a solution containing 6 wt. % of sucrose as compared with a solution containing 5 wt. % of sucrose and (b) or (c) of a solution containing 6 wt. % of sucrose as compared with a solution containing 5% of sucrose and a certain concentration of a 4-hydroxydihydrochalcone being used according to the invention was determined by a group of experts (classification 0 [not sweet] to 10 [extremely sweet]). Evaluation was performed by calculating the enhancement (in %) of the impression of sweetness from the average values of the estimates for the solutions of 6% sucrose (second column) and for the solutions containing 5% sucrose and optionally the 4-hydroxydihydrochalcone of the formula (I) being used according to the invention (third column).

[4] = in particular in clear aqueous applications; cited from earlier work

| SMILES | total number of tasters / number of tasters who felt that test solution (b) was sweeter than test solution (a) [1] | % enhancement of the impression of sweetness ([1]; (b) with against (a) without) | Impression of sweetness (1-10) b) with ([1]; mean ± standard deviation) | total number of tasters / number of tasters who felt that test solution (b) was sweeter than test solution (a) [2] | % enhancement of the impression of sweetness ([2]; (b) with against (a) without) | Impression of sweetness (1-10) b) with ([2]; mean ± standard deviation) | total number of tasters / number of tasters who felt the 5 wt. % sucrose test solution with substance sweeter than 6 wt. % sucrose ([3]; 5% sucrose + 30 ppm substance) | % enhancement of the impression of sweetness ([3]; 5% sucrose + 30 ppm substance against 6% sucrose) | Impression of sweetness (1-10) ([3]; 5% sucrose + 30 ppm substance, mean ± standard deviation) | solubility [4] |
| --- | --- | --- | --- | --- | --- | --- | --- | --- | --- | --- |
| O=C(CCc1ccc(O)cc1)c1c(O)cc(O)cc1O [compound 4, 3-(4-hydroxyphenyl)-1-(2,4,6-trihydroxyphenyl)propan-1-one] | 16/14 | +31% | 7.4 ± 1.4 | 16/11 | +45% | 4.4 ± 2.1 | 16/7 | −4.9% | 6.1 ± 1.4 | – |
| COc1ccc(C2CC(=O)c3c(O)cc(O)cc3O2)cc1O (stereo not shown) [hesperetin] | – | – | – | – | – | – | – | – | – | low solubility |
